In PubChem BioAssay (NCI):
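Grown in 96-well plates, cells were treated for 48 hours with each compound at five concentrations. Insufficient inhibition: endpoint recorded as highest concentration tested. GI50 = concentration required for 50% inhibition of growth. TGI marks complete inhibition of growth.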

What was measured:
Experiment in all cases: inhibition of tumour cell growth, NCI panel, 48 h
[1] = test system: SK-MEL-5 melanoma
[2] = test system: SNB-75 CNS
[3] = test system: NCI-H226 lung
[4] = test system: 786-0 renal
[5] = test system: OVCAR-5 ovarian
[6] = test system: LOX IMVI melanoma
[7] = test system: SF-539 CNS
[8] = test system: ACHN renal
[9] = test system: CAKI-1 renal
[10] = test system: HOP-62 NSCLC

| SMILES | GI50 [1] [µM] | TGI [1] [µM] | GI50 [2] [µM] | TGI [2] [µM] | GI50 [3] [µM] | TGI [3] [µM] | GI50 [4] [µM] | TGI [4] [µM] | GI50 [5] [µM] | TGI [5] [µM] | GI50 [6] [µM] | TGI [6] [µM] | GI50 [7] [µM] | TGI [7] [µM] | GI50 [8] [µM] | TGI [8] [µM] | GI50 [9] [µM] | TGI [9] [µM] | GI50 [10] [µM] | TGI [10] [µM] |
| --- | --- | --- | --- | --- | --- | --- | --- | --- | --- | --- | --- | --- | --- | --- | --- | --- | --- | --- | --- | --- |
| Fc1ccc(Nc2nc(Nc3ccc(-c4nc5ccccc5[nH]4)cc3)nc(N3CCCC3)n2)cc1 | 11.8 | 24.4 | 1.7 | 3.89 | 14.2 | 34.9 | 1.8 | 3.35 | 2.93 | 8.19 | 1.77 | 3.55 | 2.08 | 4.26 | 3.08 | 10.4 | 3.01 | 12.5 | 2.12 | 5.09 |
| COc1ccc(C(=O)Nc2cccc(C3CC(=O)c4c(cc(OC)c(OC)c4OC)O3)c2)cc1 (configuration not stated) | 1.49 | 4.04 | 1.35 | 8.35 | 2.6 | 43.1 | 0.795 | > 100 | 4.98 | > 100 | 0.84 | 52.4 | 1.66 | 4.65 | 2.57 | > 100 | 1.58 | > 100 | 1.72 | > 100 |
| CNCCNc1nc2ccccc2c2c(=O)c3cccc(OC)c3sc12 | 1.65 | 3.04 | 1.1 | 2.33 | 1.61 | 3.49 | 1.76 | 3.35 | 1.64 | 3.27 | 1.27 | 2.63 | 1.69 | 3.12 | 1.01 | 2.3 | 1.32 | 2.71 | 1.25 | 2.92 |
| Cc1ccccc1NC(=O)c1[nH]c(=S)nc(N)c1-c1ccccc1C | – | > 100 | – | 76.1 | – | > 100 | – | > 100 | – | > 100 | – | > 100 | – | > 100 | – | > 100 | – | > 100 | – | > 100 |
| CN(C)CCn1cc(-c2ccc3c(Nc4ccc(CC(=O)Nc5cccc(F)c5)cc4)ncnc3c2)cn1 | > 10 | > 10 | 0.0472 | > 10 | > 10 | > 10 | 1.42 | 2.87 | 1.58 | 4.26 | 1.33 | 3.02 | 0.0918 | 1.97 | 4.24 | > 10 | 1.24 | 3.4 | > 10 | > 10 |
| C[C@H](NC(=O)OC1C2C=CC(O)C1CC2)c1ccccc1 (some centres not stated) | – | > 100 | – | > 100 | – | > 100 | – | > 100 | – | > 100 | – | > 100 | – | > 100 | – | > 100 | – | > 100 | – | > 100 |
| Cn1c(=O)c(Cc2ccc(F)cc2F)cc2cnc(NC3CCOCC3)nc21 | 11.8 | > 25 | > 17.5 | > 25 | > 21.1 | > 25 | > 25 | > 25 | > 25 | > 25 | > 25 | > 25 | > 25 | > 25 | > 25 | > 25 | > 19.4 | > 25 | > 25 | > 25 |
| Cc1ccc(Cl)cc1Nc1nc(C(F)(F)F)ccc1C(=O)Oc1ccc(Cl)cc1 | 7.01 | 26.8 | 6.57 | 23.3 | 12.1 | 36.1 | 14.3 | 30.8 | 10.5 | 27.5 | 5.21 | 21.9 | 12 | 27.1 | 5.16 | 18 | 3.31 | 13.2 | 8.88 | 23.1 |
| Cc1ccccc1NC(=O)NC(CC(N)=O)c1ccc2c(c1)nc(-c1cccc(Oc3ccc(C(C)(C)C)cc3)c1)n2CCCN1CCCCC1C (configuration not stated) | 1.73 | 3.19 | 2.41 | 6.5 | 7.9 | 25.7 | 4.19 | 8.66 | 5.21 | 12 | 1.67 | 3.14 | 1.82 | 3.77 | 9.08 | 22.3 | 17.2 | 42.8 | 1.97 | 4.46 |
| CCC(=O)O[C@@H]1C2C(OC(C)=O)C34COC(C)([C@@H]3C3C(C[C@]3(C)OC(C)=O)[C@@H](OC(=O)c3ccccc3)C4=O)[C@H](OC(C)=O)[C@@]2(OC(C)=O)C[C@@H]1C (some centres not stated) | – | 51 | – | 12.4 | – | 41.4 | – | 29.2 | – | > 100 | – | > 100 | – | 47.5 | – | > 100 | – | > 100 | – | > 100 |
| COc1ccccc1NC(=O)C1=C(C)NC(C)=C(C(=O)Nc2ccccc2OC)C1c1ccc(C(C)C)cc1 | – | > 100 | – | > 100 | – | > 100 | – | > 100 | – | > 100 | – | > 100 | – | > 100 | – | > 100 | – | > 100 | – | > 100 |
| O=C1c2cc3c(cc2-c2c1c1ccc([N+](=O)[O-])cc1c(=O)n2CCCCl)OCO3 | 0.246 | 2.59 | 3.35 | > 100 | 0.409 | 9.09 | 0.198 | > 100 | 0.634 | > 100 | 0.0742 | > 100 | 0.145 | – | 0.0707 | 0.234 | 0.0268 | 76.6 | 0.383 | > 100 |
| CCN(CCCl)CCNc1c2ccccc2nc2ccc(OC)cc12 | – | 2.6 | – | 3.27 | – | 2.42 | – | 1.84 | – | 4.04 | – | 2.14 | – | 2.34 | – | 1.66 | – | 4.23 | – | 3.85 |
| O=Cc1ccc(C(F)(F)F)cc1.[C-]#[O+].[C-]#[O+].[C-]#[O+].[Cr] | 12.6 | 28.3 | 15.6 | 49.5 | 21.6 | 98.4 | 13.1 | 44.1 | 53.9 | > 100 | 26.2 | > 100 | 18.5 | 54.3 | 30.2 | > 100 | 24.6 | > 100 | 46.6 | > 100 |
| Cn1c2ccccc2c2c3c(c4c5ccccc5n(CCCCCC#N)c4c21)C(=O)N(O)C3=O | 0.319 | 1.09 | 0.43 | 6.2 | 1.6 | 7.14 | 1.59 | 3.81 | 2.43 | 8.04 | 0.167 | 1.24 | 0.295 | 1.1 | 0.317 | 1.19 | 1.37 | 3.03 | 0.42 | 5.65 |
| O=C1C(c2ccccc2)=C(c2ccccc2)C(c2ccccc2)/C1=C1\C(=O)C(c2ccccc2)=C(c2ccccc2)C1c1ccccc1 (configuration not stated) | – | > 100 | – | > 100 | – | > 100 | – | > 100 | – | > 100 | – | > 100 | – | > 100 | – | > 100 | – | > 100 | – | > 100 |
| CC(CN(CP(=O)([O-])[O-])CP(=O)([O-])[O-])N(CP(=O)([O-])[O-])CP(=O)([O-])[O-].N[C@@H]1CCCC[C@@H]1N.[Pt+2] (configuration not stated) | > 100 | > 100 | > 100 | > 100 | > 100 | > 100 | > 100 | > 100 | > 100 | > 100 | > 100 | > 100 | > 100 | > 100 | > 100 | > 100 | > 100 | > 100 | > 100 | > 100 |
| C[n+]1c2ccccc2c(NC2CCNCC2)c2[nH]c3ccccc3c21 | 0.488 | 2.32 | 0.524 | 2.72 | 0.384 | 2.52 | 2.46 | 16.3 | 1.76 | 17.6 | 1.68 | 5.52 | 1.48 | 6.83 | 4.68 | 32.1 | – | 7.09 | 0.473 | 5.17 |
| CC1SC(c2cccs2)N(NC(=O)C(O)c2ccccc2)C1=O (configuration not stated) | > 100 | > 100 | > 100 | > 100 | > 100 | > 100 | > 100 | > 100 | > 100 | > 100 | > 100 | > 100 | > 100 | > 100 | > 100 | > 100 | > 100 | > 100 | > 100 | > 100 |
| NCCOc1ccccn1 | – | > 100 | – | > 100 | – | > 100 | – | > 100 | – | > 100 | – | > 100 | – | > 100 | – | > 100 | – | > 100 | – | > 100 |
| C=C1C(=O)O[C@H]2[C@H]1CC/C(Cn1cc(CCC)nn1)=C\CC[C@@]1(C)O[C@@H]21 | 15.3 | 29.6 | 18.5 | 69.4 | 12.6 | 33.4 | 11.3 | 25.5 | 14.1 | 29.5 | 3.9 | 16.9 | 8.87 | 22.5 | 3.81 | 15.6 | 3.91 | 16.2 | 14.1 | 27.8 |
| COC(=O)c1c(-c2ccccc2)csc1NC(=O)c1c(-c2ccccc2)noc1C | 0.185 | > 100 | 3.59 | > 100 | 1.56 | > 100 | 1.34 | > 100 | – | > 100 | 0.24 | 3.56 | 0.655 | > 100 | 0.995 | > 100 | 0.745 | > 100 | 4.56 | > 100 |
| CCCCOC(=O)N[C@H]1CCc2cc(OC)c(OC)c(OC)c2-c2ccc(SC)c(=O)cc21 | – | < 0.01 | – | 2.99 | – | 0.357 | – | 25.5 | – | 91.8 | – | 20.9 | – | < 0.01 | – | 13.1 | – | 25.6 | – | 40.3 |
| CO/N=C1/c2cc(OC)ccc2-c2c(NOC)nc3ccccc3c21 | 13.9 | 36 | 14.6 | 40.2 | 35.1 | > 100 | 17.7 | 34.2 | 22 | 71.6 | 26.7 | > 100 | 21.9 | 52.6 | 14.3 | 31.3 | > 100 | > 100 | 24.6 | 39.4 |
| CCOc1ccc2c(c1)/C(=C\C=C\C1CC(C)C3CC(OCC)CCC3N1CC)CC(C)N2CC (configuration not stated) | 0.702 | 2.01 | 0.599 | 1.92 | 1.06 | 2.79 | 1.49 | 2.98 | 1.23 | 2.64 | 0.871 | 2.27 | 1.27 | 2.68 | 1.43 | 2.95 | 1.65 | 4.16 | 0.755 | 2.25 |
| O=C1NC(=NCCc2ccccc2Cl)S/C1=C\c1ccc2ncccc2c1 | 6.92 | 24.6 | 1.7 | > 14.9 | 7.61 | > 25 | 7.66 | > 25 | 12.2 | > 25 | 1.57 | > 25 | 3.13 | 13.2 | 6.5 | > 25 | 3.3 | > 14.8 | 6.26 | > 25 |
| CCCCCCCCSC1=CC(=O)C(OC)=C(OC)C1=O | 1.6 | 8.79 | 2.21 | 16.7 | 5.4 | 27.5 | 7.86 | 20.1 | 4.25 | 16.7 | 0.767 | 2.11 | 2.54 | 5.9 | 1.58 | 2.98 | 6.11 | 54.6 | 11.1 | 24.4 |
